# According to patent publication US8785483B2, “Methods for treating COPD” (The Board of Regents of the University of Texas System, priority 2010, dated 2014):
# Legend:
# [1] = tested on: small airway epithelial cells (SAEC); assay: Cell viability (MTT) assay, CSE-induced cell death; assay type: cell-based, human; conditions: 24 h, with fidarestat (10 μM in FIG. 1 legend, 20 μM in method)
# Procedure: FIG. 1. Inhibition of AR prevents cigarette smoke extract (CSE)-induced cell-death in small airway epithelial cells (SAEC). MTT assay was performed after incubating the cells for 24 h with different concentrations of CSE in absence and presence of 10 μM Fidarestat. Bars (Mean±SD; n=6) represent the absorbance at 570 nm corresponding to live cells. Primary human Small Airway Epithelial Cells (SAEC) obtained from Lonza (Walkersville, Md.) were normal human SAEC harvested from distal airspace of donor. The cells were cultured according to the supplier's instructions at 37° C. in humidified atmosphere containing 95% air and 5% CO2 in small airway epithelial basal medium (SABM) with supplements containing 52 μg/ml bovine pituitary extract, 0.5 ng/ml human recombinant epidermal growth factor (EGF), 0.5 μg/ml epinephrine, 1 μg/ml hydrocortisone, 10 μg/ml transferrin, 5 μg/ml insulin, 0.1 ng/ml retinoic acid (RA), 6.5 ng/ml triiodothyronine, 50 μg/ml Gentamicin/Amphotericin-B (GA-1000), and 50 μg/ml fatty acid-free bovine serum albumin (BSA). […] Absorbance was read at 570 nm using a 96-well ELISA plate reader.
# [2] = tested on: Muc5AC; assay: RT-PCR of Muc5AC in IL-13-treated SAEC monolayer; assay type: cell-based, human; conditions: SAEC monolayer at ALI, IL-13 18 h
# Procedure: FIGS. 6A-6B. AR inhibition prevents IL-13-induced expression of Mucin and transcription factor SPDEF in airway epithelial cell monolayer. (A) The airway epithelial cell monolayer at ALI was serum starved without or with fidarestat and incubated with IL-13 for 18 h. Total RNA was isolated and subsequently RT-PCR was performed to assess the expression of Muc5AC and SPDEF. The bar diagrams show densitometric analysis of the corresponding blots (n=4). *p<0.001 vs Control; **p<0.001 vs IL-13; (B) The monolayer of ciliated airway cells at ALI was treated with AR inhibitor for 24 h and subsequently incubated with IL-13 for 24 or 48 h. At the end of incubation, cell lysate was prepared and subjected to western blotting using antibodies against Muc5AC, Muc5B, and SPDEF. The membranes were stripped and re-probed with antibodies against GAPDH to show the equal loading of protein. A representative blot is shown (n=4). *p<0.0001 vs Control; **p<0.001 vs IL-13.
# For air-liquid interface (ALI) culture, SAEC were seeded at 8.5×10^4 cells/12-mm-diameter PET transparent insert with […] pores (12-well millicell culture insert; Millipore) and pre-coated with rat tail collagen type-1 (Sigma-Aldrich). The cells were grown submerged in the differentiation medium as described earlier by Zhen et al. (Am J Respir Cell Mol Biol 36: 244-253, 2007). […]
compound,measurement,setting,value
"NC(=O)[C@@H]1C[C@]2(NC(=O)NC2=O)c2cc(F)ccc2O1 [fidarestat, (2S,4S)-2-aminoformyl-6-fluoro-spiro[chroman-4,4′-imidazolidine]-2′,5′-dione]",cells alive after CSE,[1]; 12.5% CSE,more than 95%
same,cells alive after CSE,[1]; 50% CSE,> 85%
same,IL-13-induced Muc5AC-specific RNA expression,[2],significantly prevented the increase
